Measured values published in article PMC7997453 (Pharmaceuticals, 2021).
Where two headings read alike, the source gives them in different places.

Key:
[1] = set-up: method as in PMID 24195812; details: rats; oral dose of 0.024 mM/kg STA or SIA; cited from earlier work
[2] = ref supplement 2; cited from earlier work
[3] = tissue to plasma partition coefficients; details: In-house data
Text: All PBPK simulations were constructed using the population-based ADME(absorption, distribution, metabolism, and excretion) simulator (version 13.1.1, Simcyp® Ltd., Certara, Sheffield, UK).

CYP3A5 [4] = target: T1, CYP3A5 (Homo sapiens, UniProt P20815); test: Reversible inhibition (RI) assay on tacrolimus metabolism, CYP3A5*1/*3 HLM with CYP3cide
Experimental: (§3) The reactions were started with the addition of nicotinamide adenine dinucleotide phosphate (NADPH, 1 mM) and stopped 10 min later upon adding a double volume of ice-cold methanol. […] Reactions were terminated with the same method as the CYP3A4 group. All incubations were carried out in triplicate. […] Dixon plots were used to analyze the inhibitory type of RI assay and Ki value.

CYP3A4 [5] = target: T2, CYP3A4 (Homo sapiens, UniProt P08684); test: Reversible inhibition (RI) assay on tacrolimus metabolism, CYP3A5*3/*3 HLM
Experimental: as §3

[6] = intrinsic clearance in human liver microsomes; type: in vitro ADME; details: In-house data, read-out: CLint,HLM
CYP3A5 [7] = target: T1, CYP3A5; test: Time-dependent inhibition (TDI) assay, testosterone-6β-hydroxylation, CYP3A5*1/*3 HLM with CYP3cide; type: biochemical
Experimental: (§1) Testosterone-6β-hydroxylation was used to measure the activity of CYP3A4 and CYP3A5. […] With the corresponding double-reciprocal plot, the derived kinetic constants from the inactivation experiments were estimated.
(§2) Two-step incubation was performed to evaluate the TDI assay. […] After pre-incubation for 3 min at 37 °C in a shaking water bath, the enzymatic reaction was started upon adding NADPH (1 mM) with various pre-reaction time (0, 5, 10, 20, 30 min). For TDI on CYP3A5, NADPH (1 mM) was added to the incubation which contained CYP3A5*1/*3 HLM (0.5 mg/mL) and CYP3cide (1.2 μM) after being pre-warmed for 3 min. […] Next step, an aliquot (20 μL) of the primary pre-reaction mixture was transferred to 180 μL of the secondary incubation system which consisted of PBS (0.1 M), testosterone (200 μM) and NADPH (1 mM). The secondary reaction was incubated at 37 °C for 10 min and terminated by adding 400 μL ice-cold acetonitrile containing prednisolone as the internal standard (0.3150 μM for CYP3A5*3/*3 HLM incubation and 0.07875 μM for CYP3A5*1/*3 HLM incubation). […] The observed inactivation rate of the affected enzyme (kobs) was the negative slope of the linear regression. kinact and KI were calculated using Equation (1) by the double-reciprocal plot. I represents the concentration of the inhibitor. (1) kobs=kinact×I/[…]

CYP3A4 [8] = target: T2, CYP3A4; test: Time-dependent inhibition (TDI) assay, testosterone-6β-hydroxylation, CYP3A5*3/*3 HLM; type: biochemical
Experimental: as §1, §2

[9] = set-up: method as in https://pubchem.ncbi.nlm.nih.gov/; details: ref https://pubchem.ncbi.nlm.nih.gov/; cited from earlier work
[10] = ref supplement 1; cited from earlier work
CYP3A = details: rat liver microsomes, cited from earlier work
[11] = 2 μM SIA, pre-incubation 10 min
[12] = 2 μM SIA, pre-incubation 20 min
[13] = 2 μM SIA, pre-incubation 30 min
[14] = 4 μM SIA, pre-incubation 10 min
[15] = 4 μM SIA, pre-incubation 20 min
[16] = 4 μM SIA, pre-incubation 30 min
[17] = 8 μM SIA, pre-incubation 10 min
[18] = 8 μM SIA, pre-incubation 20 min
[19] = 8 μM SIA, pre-incubation 30 min
[20] = 16 μM SIA, pre-incubation 0 min
[21] = 16 μM SIA, pre-incubation 5 min
[22] = 16 μM SIA, pre-incubation 10 min
[23] = 16 μM SIA, pre-incubation 20 min
[24] = 16 μM SIA, pre-incubation 30 min

T2 sequence (P08684 whole entry): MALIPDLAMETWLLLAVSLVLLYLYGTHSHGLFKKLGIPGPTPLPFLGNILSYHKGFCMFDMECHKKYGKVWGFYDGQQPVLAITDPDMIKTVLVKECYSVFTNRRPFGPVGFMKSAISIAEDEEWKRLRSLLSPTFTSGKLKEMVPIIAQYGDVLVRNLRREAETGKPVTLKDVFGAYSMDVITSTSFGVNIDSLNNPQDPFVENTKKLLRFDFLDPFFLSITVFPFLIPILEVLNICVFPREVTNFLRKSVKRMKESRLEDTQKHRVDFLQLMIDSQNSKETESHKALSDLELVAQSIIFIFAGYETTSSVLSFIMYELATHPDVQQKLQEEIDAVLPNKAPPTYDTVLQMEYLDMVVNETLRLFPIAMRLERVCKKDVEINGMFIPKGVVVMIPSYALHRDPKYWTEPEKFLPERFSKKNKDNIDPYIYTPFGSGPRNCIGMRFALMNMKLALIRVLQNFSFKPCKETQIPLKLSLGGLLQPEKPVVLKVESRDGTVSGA
T1 sequence (P20815 whole entry): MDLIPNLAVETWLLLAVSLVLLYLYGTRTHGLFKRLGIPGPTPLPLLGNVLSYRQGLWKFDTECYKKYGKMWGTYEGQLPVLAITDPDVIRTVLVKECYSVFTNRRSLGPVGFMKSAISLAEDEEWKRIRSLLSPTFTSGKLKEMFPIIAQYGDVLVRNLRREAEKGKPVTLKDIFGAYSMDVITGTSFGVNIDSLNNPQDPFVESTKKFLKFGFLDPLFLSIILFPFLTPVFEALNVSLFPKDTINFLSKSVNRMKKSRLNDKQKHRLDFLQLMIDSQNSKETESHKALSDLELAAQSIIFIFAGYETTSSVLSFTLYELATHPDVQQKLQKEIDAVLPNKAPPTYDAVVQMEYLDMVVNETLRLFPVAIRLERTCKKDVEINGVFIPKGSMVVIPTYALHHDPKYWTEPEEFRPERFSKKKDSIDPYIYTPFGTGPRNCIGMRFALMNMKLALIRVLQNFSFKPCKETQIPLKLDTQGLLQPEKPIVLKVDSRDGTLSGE

Kp ([3]; adipose, read-out: Kp Adipose): 36.4 | Kp ([3]; brain, read-out: Kp Brain): 7.4 | Kp ([3]; gut, read-out: Kp Gut): 210 | Kp ([3]; heart, read-out: Kp Heart): 39.5 | Kp ([3]; kidney, read-out: Kp Kidney): 5.9 | Kp ([3]; liver, read-out: Kp Liver): 3.9 | Kp ([3]; lung, read-out: Kp Lung): 19 | Kp ([3]; spleen, read-out: Kp Spleen): 7.6 | Ki (CYP3A5 [4]): 8.74 µM | Dixon plot data point, Figure 2D, Mean (CYP3A5 [4]; 2.4 μM SIA, 0.2 μM tacrolimus): 32.0000 | Dixon plot data point, Figure 2D, Mean (CYP3A5 [4]; 2.4 μM SIA, 0.4 μM tacrolimus): 17.6167 | Dixon plot data point, Figure 2D, Mean (CYP3A5 [4]; 2.4 μM SIA, 0.8 μM tacrolimus): 9.2000 | Dixon plot data point, Figure 2D, Mean (CYP3A5 [4]; 2.4 μM SIA, 1.6 μM tacrolimus): 6.2790 | Dixon plot data point, Figure 2D, Mean (CYP3A5 [4]; 7.2 μM SIA, 0.4 μM tacrolimus): 21.6176 | Dixon plot data point, Figure 2D, Mean (CYP3A5 [4]; 7.2 μM SIA, 1.6 μM tacrolimus): 6.9243 | Dixon plot data point, Figure 2D, Mean (CYP3A5 [4]; 12 μM SIA, 0.2 μM tacrolimus): 60.0000 | Dixon plot data point, Figure 2D, Mean (CYP3A5 [4]; 12 μM SIA, 0.4 μM tacrolimus): 30.1990 | Dixon plot data point, Figure 2D, Mean (CYP3A5 [4]; 12 μM SIA, 0.8 μM tacrolimus): 15.0500 | Dixon plot data point, Figure 2D, Mean (CYP3A5 [4]; 12 μM SIA, 1.6 μM tacrolimus): 7.2381 | Dixon plot data point, Figure 2C, Mean (CYP3A4 [5]; 2.4 μM SIA, 0.2 μM tacrolimus): 20.0000 | Dixon plot data point, Figure 2C, Mean (CYP3A4 [5]; 2.4 μM SIA, 0.4 μM tacrolimus): 10.0000 | Dixon plot data point, Figure 2C, Mean (CYP3A4 [5]; 2.4 μM SIA, 0.8 μM tacrolimus): 3.3452 | Dixon plot data point, Figure 2C, Mean (CYP3A4 [5]; 2.4 μM SIA, 1.6 μM tacrolimus): 1.4662 | Dixon plot data point, Figure 2C, Mean (CYP3A4 [5]; 7.2 μM SIA, 0.4 μM tacrolimus): 10.0565 | Dixon plot data point, Figure 2C, Mean (CYP3A4 [5]; 7.2 μM SIA, 1.6 μM tacrolimus): 1.7598 | Dixon plot data point, Figure 2C, Mean (CYP3A4 [5]; 12 μM SIA, 0.2 μM tacrolimus): 20.3445 | Dixon plot data point, Figure 2C, Mean (CYP3A4 [5]; 12 μM SIA, 0.4 μM tacrolimus): 9.8175 | Dixon plot data point, Figure 2C, Mean (CYP3A4 [5]; 12 μM SIA, 0.8 μM tacrolimus): 4.5304 | Dixon plot data point, Figure 2C, Mean (CYP3A4 [5]; 12 μM SIA, 1.6 μM tacrolimus): 1.6431 | reversible inhibition on CYP3A4 (in words) (CYP3A4 [5]; CYP3A5*3/*3 HLM, substrate tacrolimus): little reversible inhibition | microsomal CLint [6]: 130 µL/min/mg | TDI profile on CYP3A5 (in words) (CYP3A5 [7]): slight TDI | log of percentage of control activity, Figure 4C, Mean (CYP3A5 [7]; 2 μM SIA, pre-incubation 0 min): 4.6052 | log of percentage of control activity, Figure 4C, Mean (CYP3A5 [7]; 2 μM SIA, pre-incubation 5 min): 4.5539 | log of percentage of control activity, Figure 4C, Mean (CYP3A5 [7]; [11]): 4.5218 | log of percentage of control activity, Figure 4C, Mean (CYP3A5 [7]; [12]): 4.4427 | log of percentage of control activity, Figure 4C, Mean (CYP3A5 [7]; [13]): 4.3791 | log of percentage of control activity, Figure 4C, Mean (CYP3A5 [7]; 4 μM SIA, pre-incubation 0 min): 4.6052 | log of percentage of control activity, Figure 4C, Mean (CYP3A5 [7]; 4 μM SIA, pre-incubation 5 min): 4.4998 | log of percentage of control activity, Figure 4C, Mean (CYP3A5 [7]; [14]): 4.5031 | log of percentage of control activity, Figure 4C, Mean (CYP3A5 [7]; [15]): 4.4869 | log of percentage of control activity, Figure 4C, Mean (CYP3A5 [7]; [16]): 4.2859 | log of percentage of control activity, Figure 4C, Mean (CYP3A5 [7]; 8 μM SIA, pre-incubation 0 min): 4.6052 | log of percentage of control activity, Figure 4C, Mean (CYP3A5 [7]; 8 μM SIA, pre-incubation 5 min): 4.4632 | log of percentage of control activity, Figure 4C, Mean (CYP3A5 [7]; [17]): 4.4150 | log of percentage of control activity, Figure 4C, Mean (CYP3A5 [7]; [18]): 4.4028 | log of percentage of control activity, Figure 4C, Mean (CYP3A5 [7]; [19]): 4.2282 | log of percentage of control activity, Figure 4C, Mean (CYP3A5 [7]; [20]): 4.5539 | log of percentage of control activity, Figure 4C, Mean (CYP3A5 [7]; [21]): 4.4523 | log of percentage of control activity, Figure 4C, Mean (CYP3A5 [7]; [22]): 4.3701 | log of percentage of control activity, Figure 4C, Mean (CYP3A5 [7]; [23]): 4.2585 | log of percentage of control activity, Figure 4C, Mean (CYP3A5 [7]; [24]): 4.1607 | kinact/KI (CYP3A5 [7]; CYP3A5): 113 M⁻¹ s⁻¹ | KI (CYP3A5 [7]; CYP3A5, testosterone-6β-hydroxylation): 2.07 µM | kinact (CYP3A5 [7]; human, CYP3A5*1/*3 human liver microsomes with CYP3cide, probe testosterone (200 μM), with CYP3cide ([…]), CYP3A5, testosterone-6β-hydroxylation): 0.000233 s⁻¹ | TDI profile on CYP3A4 (in words) (CYP3A4 [8]): slight TDI | log of percentage of control activity, Figure 4A, Mean (CYP3A4 [8]; 2 μM SIA, pre-incubation 0 min): 4.6052 | log of percentage of control activity, Figure 4A, Mean (CYP3A4 [8]; 2 μM SIA, pre-incubation 5 min): 4.5754 | log of percentage of control activity, Figure 4A, Mean (CYP3A4 [8]; [11]): 4.5165 | log of percentage of control activity, Figure 4A, Mean (CYP3A4 [8]; [12]): 4.4602 | log of percentage of control activity, Figure 4A, Mean (CYP3A4 [8]; [13]): 4.3520 | log of percentage of control activity, Figure 4A, Mean (CYP3A4 [8]; 4 μM SIA, pre-incubation 0 min): 4.6052 | log of percentage of control activity, Figure 4A, Mean (CYP3A4 [8]; 4 μM SIA, pre-incubation 5 min): 4.5505 | log of percentage of control activity, Figure 4A, Mean (CYP3A4 [8]; [14]): 4.4420 | log of percentage of control activity, Figure 4A, Mean (CYP3A4 [8]; [15]): 4.3925 | log of percentage of control activity, Figure 4A, Mean (CYP3A4 [8]; [16]): 4.2490 | log of percentage of control activity, Figure 4A, Mean (CYP3A4 [8]; 8 μM SIA, pre-incubation 0 min): 4.6029 | log of percentage of control activity, Figure 4A, Mean (CYP3A4 [8]; 8 μM SIA, pre-incubation 5 min): 4.5164 | log of percentage of control activity, Figure 4A, Mean (CYP3A4 [8]; [17]): 4.3979 | log of percentage of control activity, Figure 4A, Mean (CYP3A4 [8]; [18]): 4.2781 | log of percentage of control activity, Figure 4A, Mean (CYP3A4 [8]; [19]): 4.1876 | log of percentage of control activity, Figure 4A, Mean (CYP3A4 [8]; [20]): 4.6052 | log of percentage of control activity, Figure 4A, Mean (CYP3A4 [8]; [21]): 4.4518 | log of percentage of control activity, Figure 4A, Mean (CYP3A4 [8]; [22]): 4.3776 | log of percentage of control activity, Figure 4A, Mean (CYP3A4 [8]; [23]): 4.2397 | log of percentage of control activity, Figure 4A, Mean (CYP3A4 [8]; [24]): 4.0738 | kinact/KI (CYP3A4 [8]; CYP3A4): 125 M⁻¹ s⁻¹ | KI (CYP3A4 [8]; CYP3A4, testosterone-6β-hydroxylation): 2.54 µM | kinact (CYP3A4 [8]; human, CYP3A5*3/*3 human liver microsomes, probe testosterone (200 μM), CYP3A4, testosterone-6β-hydroxylation): 0.000317 s⁻¹
Structure (SMILES): COc1cc2c(c(OC)c1OC)-c1c(cc(OC)c(OC)c1OC)C[C@H](C)[C@H](C)C2 [SIA, schisandrin A]
increase of systemic exposure of tacrolimus [1]: 2.37 fold | fu plasma [2]: 0.0334 | HBD [9]: 0 | PSA [9]: 55.38 Å2 | Log Po:w [10]: 5.265 | Ki (CYP3A; midazolam 1′-hydroxylation): 5.83 µM | Ki (CYP3A; midazolam 4-hydroxylation): 4.8 µM
